Test results reported in patent US8884061B2, “Compositions and methods of use of electron transport system inhibitors” (priority 2006, dated 2014).
Converted amounts (≈) assume the structure as drawn. Read-outs that look alike come from different tables or passages of the source.

Experiments:
Experiment in all cases: MIC, other bacteria (Table 3)
[1] = system: S. aureus ATCC 29213; assay type: cell-based
[2] = system: S. aureus ATCC 43300 (MRSA); assay type: cell-based; conditions: inoculum size 10^6 CFU/ml
[3] = system: VRSA 2441-T0041; assay type: cell-based, S. aureus
[4] = system: VRSA 2441-T0044; assay type: cell-based, S. aureus
[5] = system: MRSA 2441-05104; assay type: cell-based, S. aureus; conditions: inoculum size 10^6 CFU/ml
[6] = system: MRSA 2441-05112; assay type: cell-based, S. aureus; conditions: inoculum size 10^6 CFU/ml
[7] = system: MRSA 2441-05129; assay type: cell-based, S. aureus; conditions: inoculum size 10^6 CFU/ml
[8] = system: MRSA 2441-05223; assay type: cell-based, S. aureus; conditions: inoculum size 10^6 CFU/ml
[9] = system: MRSA 2441-05254; assay type: cell-based, S. aureus; conditions: inoculum size 10^6 CFU/ml
[10] = system: MRSA 2441-05262; assay type: cell-based, S. aureus; conditions: inoculum size 10^6 CFU/ml
[11] = system: S. epidermidis ATCC 12228; assay type: cell-based
[12] = system: MRSE 2442-05030; assay type: cell-based, S. epidermidis; conditions: inoculum size 10^6 CFU/ml
[13] = system: MRSE 2442-05047; assay type: cell-based, S. epidermidis; conditions: inoculum size 10^6 CFU/ml
[14] = system: MRSE 2442-05053; assay type: cell-based, S. epidermidis; conditions: inoculum size 10^6 CFU/ml
[15] = system: MRSE 2442-05060; assay type: cell-based, S. epidermidis; conditions: inoculum size 10^6 CFU/ml
[16] = system: MRSE 2442-05110; assay type: cell-based, S. epidermidis; conditions: inoculum size 10^6 CFU/ml
[17] = system: MRSE 2442-05118; assay type: cell-based, S. epidermidis; conditions: inoculum size 10^6 CFU/ml
[18] = system: E. faecalis ATCC 29212; assay type: cell-based
[19] = system: E. faecalis ATCC 51299 (VRE); assay type: cell-based; conditions: low level VCM-resistant, Van B, inoculum size 10^6 CFU/ml
[20] = system: E. faecalis NCTC 12201 (VRE); assay type: cell-based; conditions: high level VCM-resistant, Van A, inoculum size 10^6 CFU/ml
[21] = system: E. faecium ATCC 49224; assay type: cell-based; conditions: E. faecium ATCC 49224, GM-resistant, inoculum size 10^6 CFU/ml
[22] = system: E. faecium NCTC 12203 (VRE); assay type: cell-based; conditions: high level VCM-resistant, Van A, inoculum size 10^6 CFU/ml
[23] = system: E. coli ATCC 25922; assay type: cell-based
[24] = system: K. pneumoniae ATCC 27736; assay type: cell-based
[25] = system: P. mirabilis ATCC 4630; assay type: cell-based
[26] = system: S. marsascens ATCC 14756; assay type: cell-based; conditions: inoculum size 10^6 CFU/ml
[27] = system: P. aeruginosa ATCC 27853; assay type: cell-based
[28] = Staphylococcus aureus, read-out: MIC
[29] = Staphylococcus epidermidis, read-out: MIC
[30] = Enterococcus faecalis, read-out: MIC

CC1COc2c(N3CCN(C)CC3)c(F)cc3c(=O)c(C(=O)O)cn1c23 (stereo not drawn) [OFLX, ofloxacin, reference compound]
MIC ([1]; Staphylococcus aureus, ATCC29213, inoculum size 10^6 CFU/ml, read-out: MIC): 0.2 µg/mL (≈ 0.553 µM)
MIC [2, 28]: 0.39 µg/mL (≈ 1.08 µM)
MIC ([3]; Staphylococcus aureus, VRSA): 1.25 µg/mL (≈ 3.46 µM)
MIC ([4]; Staphylococcus aureus, VRSA): 1.25 µg/mL (≈ 3.46 µM)
MIC [5, 28]: 25 µg/mL (≈ 69.2 µM)
MIC [6, 28]: 50 µg/mL (≈ 138 µM)
MIC [7, 28]: 1 µg/mL (≈ 2.77 µM)
MIC [8, 28]: 0.2 µg/mL (≈ 0.553 µM)
MIC [9, 28]: 50 µg/mL (≈ 138 µM)
MIC [10, 28]: 50 µg/mL (≈ 138 µM)
MIC ([11]; Staphylococcus epidermidis, ATCC12228, inoculum size 10^6 CFU/ml, read-out: MIC): 0.2 µg/mL (≈ 0.553 µM)
MIC [12, 29]: 6.25 µg/mL (≈ 17.3 µM)
MIC [13, 29]: 6.25 µg/mL (≈ 17.3 µM)
MIC [14, 29]: 6.25 µg/mL (≈ 17.3 µM)
MIC [15, 29]: 6.25 µg/mL (≈ 17.3 µM)
MIC [16, 29]: 6.25 µg/mL (≈ 17.3 µM)
MIC [17, 29]: 6.25 µg/mL (≈ 17.3 µM)
MIC ([18]; Enterococcus faecalis, ATCC29212, inoculum size 10^6 CFU/ml, read-out: MIC): 1.56 µg/mL (≈ 4.32 µM)
MIC [19, 30]: 1.56 µg/mL (≈ 4.32 µM)
MIC [20, 30]: 1.56 µg/mL (≈ 4.32 µM)
MIC ([21]; Enterococcus faecium, ATCC49224, read-out: MIC): 3.13 µg/mL (≈ 8.66 µM)
MIC ([22]; Enterococcus faecium, read-out: MIC): 3.13 µg/mL (≈ 8.66 µM)
MIC ([23]; Escherichia coli, ATCC25922, inoculum size 10^6 CFU/ml, read-out: MIC): 0.05 µg/mL (≈ 0.138 µM)
MIC ([24]; Klebsiella pneumoniae, ATCC27736, inoculum size 10^6 CFU/ml, read-out: MIC): 0.2 µg/mL (≈ 0.553 µM)
MIC ([25]; Proteus mirabilis, ATCC4630, inoculum size 10^6 CFU/ml, read-out: MIC): 0.39 µg/mL (≈ 1.08 µM)
MIC ([26]; read-out: MIC): 0.024 µg/mL (≈ 0.0664 µM)
MIC ([27]; Pseudomonas aeruginosa, ATCC27853, inoculum size 10^6 CFU/ml, read-out: MIC): 3.13 µg/mL (≈ 8.66 µM)

CN[C@H](CC(C)C)C(=O)N[C@H]1C(=O)N[C@@H](CC(N)=O)C(=O)N[C@H]2C(=O)N[C@H]3C(=O)N[C@H](C(=O)N[C@H](C(=O)O)c4cc(O)cc(O)c4-c4cc3ccc4O)[C@H](O)c3ccc(c(Cl)c3)Oc3cc2cc(c3O[C@@H]2O[C@H](CO)[C@@H](O)[C@H](O)[C@H]2O[C@H]2C[C@](C)(N)[C@H](O)[C@H](C)O2)Oc2ccc(cc2Cl)[C@H]1O [VCM, reference compound]
MIC ([1]; inoculum size 10^6 CFU/ml): 0.78 µg/mL (≈ 0.538 µM)
MIC [2]: 0.78 µg/mL (≈ 0.538 µM)
MIC ([3]; VRSA 2441-T0041, low level VCM-resistant, inoculum size 10^6 CFU/ml): 3.13 µg/mL (≈ 2.16 µM)
MIC ([4]; VRSA 2441-T0044, low level VCM-resistant, inoculum size 10^6 CFU/ml): 6.25 µg/mL (≈ 4.31 µM)
MIC [5]: 0.78 µg/mL (≈ 0.538 µM)
MIC [6]: 0.78 µg/mL (≈ 0.538 µM)
MIC [7]: 0.78 µg/mL (≈ 0.538 µM)
MIC [8]: 0.78 µg/mL (≈ 0.538 µM)
MIC [9]: 1.56 µg/mL (≈ 1.08 µM)
MIC [10]: 0.78 µg/mL (≈ 0.538 µM)
MIC ([11]; inoculum size 10^6 CFU/ml): 1.56 µg/mL (≈ 1.08 µM)
MIC [12]: 3.13 µg/mL (≈ 2.16 µM)
MIC [13]: 1.56 µg/mL (≈ 1.08 µM)
MIC [14]: 1.56 µg/mL (≈ 1.08 µM)
MIC [15]: 1.56 µg/mL (≈ 1.08 µM)
MIC [16]: 1.56 µg/mL (≈ 1.08 µM)
MIC [17]: 1.56 µg/mL (≈ 1.08 µM)
MIC ([18]; inoculum size 10^6 CFU/ml): 3.13 µg/mL (≈ 2.16 µM)
MIC [19]: 1.25 µg/mL (≈ 0.863 µM)
MIC [20]: >100 µg/mL
MIC [21]: 3.13 µg/mL (≈ 2.16 µM)
MIC [22]: >100 µg/mL
MIC ([23]; inoculum size 10^6 CFU/ml): >100 µg/mL
MIC ([24]; inoculum size 10^6 CFU/ml): >100 µg/mL
MIC ([25]; inoculum size 10^6 CFU/ml): >100 µg/mL
MIC [26]: >100 µg/mL
MIC ([27]; inoculum size 10^6 CFU/ml): >100 µg/mL
